Results published in ChEMBL document CHEMBL3867482, “Design and synthesis of water soluble β-aminosulfone analogues of SCH 900229 as γ-secretase inhibitors” (Bioorg Med Chem Lett, 2016).
pIC50: −log10 of the molar value. In brackets after ≈: the same amount, converted by molar mass. Values belong to the molecule of their own block, whether it stands above or below them.

Columns and labels:
[1] = Kinetic solubility of compound; format: physicochemical; conditions: read-out: Kinetic_solubility
Mus musculus [2] = test: Antialzheimer activity in B6C3F1 mouse assessed as amyloid beta 40 level in plasma at 10 mg/kg, po administered as single dose after 3 hrs relative to control; format: functional
Cytochrome P450 2C9 = Cytochrome P450 2C9 (Homo sapiens, UniProt P11712); test: Inhibition of CYP2C9 in human liver microsomes after 30 secs by LC/MS/MS analysis; format: ADME
[3] = Clearance in monkey hepatocytes assessed per million cells by HPLC/atmospheric pressure chemical ionization/MS analysis; format: ADME, cell-based, Macaca mulatta, Hepatocyte; conditions: rhesus monkey, read-out: CLH
[4] = AUC (0 to 6 hrs) in mouse at 10 mg/kg, po by LC/MS/MS analysis; format: ADME, organism-based; set-up: time < 6 hr, dose 10 mg/kg, route oral; conditions: in vivo
[5] = Clearance in human hepatocytes assessed per million cells by HPLC/atmospheric pressure chemical ionization/MS analysis; format: ADME, cell-based, Hepatocyte; conditions: read-out: CLH
Mus musculus [6] = test: Antialzheimer activity in B6C3F1 mouse assessed as amyloid beta 40 level in cortex at 10 mg/kg, po administered as single dose after 3 hrs relative to control; format: functional
[7] = Inhibition of gamma-secretase in HEK293 cell membranes expressing human APP Swedish/London double mutant assessed as reduction in amyloid beta 40 formation after 1 hr by electrochemiluminescence based immunoassay
Cytochrome P450 3A4 [8] = target: T1, Cytochrome P450 3A4 (Homo sapiens, UniProt P08684); test: Inhibition of CYP3A4 in human liver microsomes preincubated for 30 mins after 30 secs by LC/MS/MS analysis; format: ADME
[9] = Clearance in dog hepatocytes assessed per million cells by HPLC/atmospheric pressure chemical ionization/MS analysis; format: ADME, cell-based, Canis lupus familiaris, Hepatocyte; conditions: read-out: CLH
[10] = Clearance in rat hepatocytes assessed per million cells by HPLC/atmospheric pressure chemical ionization/MS analysis; format: ADME, cell-based, Hepatocyte; conditions: read-out: CLH
Cytochrome P450 2D6 = Cytochrome P450 2D6 (Homo sapiens, UniProt P10635); test: Inhibition of CYP2D6 in human liver microsomes after 30 secs by LC/MS/MS analysis; format: ADME
Cytochrome P450 3A4 [11] = target: T1, Cytochrome P450 3A4; test: Inhibition of CYP3A4 in human liver microsomes after 30 secs by LC/MS/MS analysis; format: ADME
[12] = Selectivity ratio of IC50 for human gamma secretase PS2 (1 to 467 residues) expressed in baculovirus infected sf9 cells co-expressing aph-1a to IC50 for gamma secretase PS1 (1 to 448 residues) expressed in baculovirus infected sf9 cells co-expressing aph-1a
[13] = Ratio of drug level in brain to plasma in mouse at 6 hrs; format: ADME, organism-based; conditions: brain and plasma, read-out: BPR

Cytochrome P450 2C9, sequence (P11712 whole entry): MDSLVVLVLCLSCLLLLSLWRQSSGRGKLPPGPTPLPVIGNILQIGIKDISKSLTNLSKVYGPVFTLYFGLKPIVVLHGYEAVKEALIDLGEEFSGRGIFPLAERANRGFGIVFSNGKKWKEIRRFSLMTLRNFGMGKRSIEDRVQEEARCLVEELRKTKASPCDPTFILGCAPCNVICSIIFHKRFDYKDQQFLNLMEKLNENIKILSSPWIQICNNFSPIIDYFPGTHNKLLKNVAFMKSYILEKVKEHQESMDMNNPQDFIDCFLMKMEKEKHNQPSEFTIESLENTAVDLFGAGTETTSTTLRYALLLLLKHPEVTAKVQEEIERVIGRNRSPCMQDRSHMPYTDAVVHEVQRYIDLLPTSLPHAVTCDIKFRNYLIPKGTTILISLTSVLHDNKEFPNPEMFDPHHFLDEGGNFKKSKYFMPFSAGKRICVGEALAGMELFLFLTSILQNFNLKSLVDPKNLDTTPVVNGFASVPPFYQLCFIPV
Cytochrome P450 2D6, sequence (P10635 whole entry): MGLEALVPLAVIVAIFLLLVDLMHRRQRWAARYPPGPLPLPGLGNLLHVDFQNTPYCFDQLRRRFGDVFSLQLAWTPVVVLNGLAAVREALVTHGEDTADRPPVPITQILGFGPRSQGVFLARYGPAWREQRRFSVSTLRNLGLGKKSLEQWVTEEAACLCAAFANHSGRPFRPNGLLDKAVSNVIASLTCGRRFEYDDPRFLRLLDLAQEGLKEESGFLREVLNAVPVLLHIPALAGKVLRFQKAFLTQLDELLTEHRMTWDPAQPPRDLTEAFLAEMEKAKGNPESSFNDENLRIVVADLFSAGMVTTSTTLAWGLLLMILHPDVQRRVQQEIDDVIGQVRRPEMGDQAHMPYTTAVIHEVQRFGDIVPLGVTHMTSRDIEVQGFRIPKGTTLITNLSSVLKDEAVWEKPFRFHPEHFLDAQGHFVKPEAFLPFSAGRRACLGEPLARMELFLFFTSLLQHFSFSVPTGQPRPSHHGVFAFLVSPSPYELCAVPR
T1 sequence (P08684 whole entry): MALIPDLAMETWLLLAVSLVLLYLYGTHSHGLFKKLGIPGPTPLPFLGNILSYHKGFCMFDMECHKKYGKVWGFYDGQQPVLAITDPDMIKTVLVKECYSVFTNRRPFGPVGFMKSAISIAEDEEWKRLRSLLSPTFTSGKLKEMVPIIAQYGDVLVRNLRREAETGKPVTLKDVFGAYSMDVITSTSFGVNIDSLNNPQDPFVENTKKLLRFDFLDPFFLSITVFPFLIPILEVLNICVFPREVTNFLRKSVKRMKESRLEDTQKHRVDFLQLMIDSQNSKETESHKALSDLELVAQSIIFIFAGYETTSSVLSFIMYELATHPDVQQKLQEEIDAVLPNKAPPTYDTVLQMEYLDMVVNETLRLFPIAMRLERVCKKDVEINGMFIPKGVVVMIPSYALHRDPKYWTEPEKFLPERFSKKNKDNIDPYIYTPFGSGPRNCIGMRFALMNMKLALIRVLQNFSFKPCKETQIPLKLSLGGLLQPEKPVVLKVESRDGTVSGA

solubility kinetic [1]: ≥ 200 µM
SMILES: Cl.O=S(=O)(CC[C@@H]1OCC[C@@]2(S(=O)(=O)c3ccc(Cl)cc3)c3c(F)ccc(F)c3OC[C@@H]12)C[C@@H]1CCCN1

pIC50 (Cytochrome P450 2C9): < 4.70 | hepatocyte CLint [3]: 20.3 µL/min/1e6 cells | AUC(0-t) at 6 h [4]: 0.582 µM·h | hepatocyte CLint [5]: 8.5 µL/min/1e6 cells | pIC50 [7]: 9.10 | pIC50 (Cytochrome P450 3A4 [8]): 5.55 | hepatocyte CLint [9]: 6.4 µL/min/1e6 cells | hepatocyte CLint [10]: 12.1 µL/min/1e6 cells | pIC50 (Cytochrome P450 2D6): < 4.70 | pIC50 (Cytochrome P450 3A4 [11]): 4.82
SMILES: NCCS(=O)(=O)CC[C@@H]1OCC[C@@]2(S(=O)(=O)c3ccc(Cl)cc3)c3c(F)ccc(F)c3OC[C@@H]12
Activity (Mus musculus [2]): -54% | Activity (Mus musculus [6]): -52%

pIC50 (Cytochrome P450 2C9): < 4.70 | hepatocyte CLint [3]: 12.7 µL/min/1e6 cells | AUC ([4]; 6 h, BLD = below limit of detection): Bld | hepatocyte CLint [5]: 5.3 µL/min/1e6 cells | pIC50 [7]: 9.10 | solubility kinetic [1]: 200 µM (≈ 121 µg/mL) | pIC50 (Cytochrome P450 3A4 [8]): < 4.70 | hepatocyte CLint [9]: 7.7 µL/min/1e6 cells | hepatocyte CLint [10]: 6.1 µL/min/1e6 cells | pIC50 (Cytochrome P450 2D6): < 4.70 | pIC50 (Cytochrome P450 3A4 [11]): < 4.70
SMILES: O=S(=O)(CC[C@@H]1OCC[C@@]2(S(=O)(=O)c3ccc(Cl)cc3)c3c(F)ccc(F)c3OC[C@@H]12)CCN1CCNCC1
Activity (Mus musculus [2]): -95% | Ratio IC50 [12]: 10

pIC50 [7]: 8.89
SMILES: CS(=O)(=O)CC[C@@H]1OCC[C@@]2(S(=O)(=O)c3ccc(Cl)cc3)c3c(F)ccc(F)c3OC[C@@H]12
Activity (Mus musculus [2]): -89% | Activity (Mus musculus [6]): -78% | Ratio IC50 [12]: 25

solubility kinetic [1]: ≥ 200 µM
SMILES: CCNCCS(=O)(=O)CC[C@@H]1OCC[C@@]2(S(=O)(=O)c3ccc(Cl)cc3)c3c(F)ccc(F)c3OC[C@@H]12.Cl

pIC50 [7]: 8.89
SMILES: O=S(=O)(CC[C@@H]1OCC[C@@]2(S(=O)(=O)c3ccc(Cl)cc3)c3c(F)ccc(F)c3OC[C@@H]12)C1CNC1
Activity (Mus musculus [2]): -15%

pIC50 [7]: 8.96
SMILES: O=S(=O)(CC[C@@H]1OCC[C@@]2(S(=O)(=O)c3ccc(Cl)cc3)c3c(F)ccc(F)c3OC[C@@H]12)CCN1CCCC1
Ratio IC50 [12]: 13

pIC50 (Cytochrome P450 2C9): < 4.70 | hepatocyte CLint [3]: 26.7 µL/min/1e6 cells | AUC(0-t) at 6 h [4]: 0.674 µM·h | hepatocyte CLint [5]: 5.6 µL/min/1e6 cells | Kp at 6 h [13]: 0.6 | pIC50 [7]: 9.15 | pIC50 (Cytochrome P450 3A4 [8]): 6.00 | hepatocyte CLint [9]: 12.5 µL/min/1e6 cells | hepatocyte CLint [10]: 15.2 µL/min/1e6 cells | pIC50 (Cytochrome P450 2D6): < 4.70 | pIC50 (Cytochrome P450 3A4 [11]): < 4.70
SMILES: O=S(=O)(CC[C@@H]1OCC[C@@]2(S(=O)(=O)c3ccc(Cl)cc3)c3c(F)ccc(F)c3OC[C@@H]12)C[C@@H]1CCCN1 [listing 1 of 2 here]
Activity (Mus musculus [2]): -57% | Activity (Mus musculus [6]): -48%

pIC50 [7]: 9.00 | solubility kinetic [1]: > 200 µM
SMILES: O=S(=O)(CCO)CC[C@@H]1OCC[C@@]2(S(=O)(=O)c3ccc(Cl)cc3)c3c(F)ccc(F)c3OC[C@@H]12
Activity (Mus musculus [2]): -42% | Activity (Mus musculus [6]): -46%

solubility kinetic [1]: ≥ 200 µM
SMILES: Cl.O=S(=O)(CC[C@@H]1OCC[C@@]2(S(=O)(=O)c3ccc(Cl)cc3)c3c(F)ccc(F)c3OC[C@@H]12)[C@H]1CCNC1

solubility kinetic [1]: ≥ 200 µM
SMILES: Cl.NCCS(=O)(=O)CC[C@@H]1OCC[C@@]2(S(=O)(=O)c3ccc(Cl)cc3)c3c(F)ccc(F)c3OC[C@@H]12

solubility kinetic [1]: ≥ 200 µM
SMILES: CNCCS(=O)(=O)CC[C@@H]1OCC[C@@]2(S(=O)(=O)c3ccc(Cl)cc3)c3c(F)ccc(F)c3OC[C@@H]12.Cl

pIC50 [7]: 8.89
SMILES: O=S(=O)(CC[C@@H]1OCC[C@@]2(S(=O)(=O)c3ccc(Cl)cc3)c3c(F)ccc(F)c3OC[C@@H]12)CCN1CCCCC1
Ratio IC50 [12]: 9

solubility kinetic [1]: ≥ 200 µM
SMILES: Cl.O=S(=O)(CC[C@@H]1OCC[C@@]2(S(=O)(=O)c3ccc(Cl)cc3)c3c(F)ccc(F)c3OC[C@@H]12)[C@@H]1CCNC1

SMILES: O=S(=O)(CC[C@@H]1OCC[C@@]2(S(=O)(=O)c3ccc(Cl)cc3)c3c(F)ccc(F)c3OC[C@@H]12)C[C@@H]1CCCN1 [listing 2 of 2 here]
Ratio IC50 [12]: 14

pIC50 (Cytochrome P450 2C9): < 4.70 | hepatocyte CLint [3]: 32 µL/min/1e6 cells | AUC(0-t) at 6 h [4]: 0.057 µM·h | hepatocyte CLint [5]: 13.7 µL/min/1e6 cells | pIC50 [7]: 8.23 | solubility kinetic [1]: 20 µM (≈ 11.5 µg/mL) | pIC50 (Cytochrome P450 3A4 [8]): 6.00 | hepatocyte CLint [9]: 20.1 µL/min/1e6 cells | hepatocyte CLint [10]: 25.9 µL/min/1e6 cells | pIC50 (Cytochrome P450 2D6): < 4.70 | pIC50 (Cytochrome P450 3A4 [11]): 4.88
SMILES: O=S(=O)(CC[C@@H]1OCC[C@@]2(S(=O)(=O)c3ccc(Cl)cc3)c3c(F)ccc(F)c3OC[C@@H]12)CC1=NCCN1
Activity (Mus musculus [2]): -86%

SMILES: CCNCCS(=O)(=O)CC[C@@H]1OCC[C@@]2(S(=O)(=O)c3ccc(Cl)cc3)c3c(F)ccc(F)c3OC[C@@H]12
Ratio IC50 [12]: 18

pIC50 (Cytochrome P450 2C9): < 4.70 | hepatocyte CLint [3]: 28 µL/min/1e6 cells | AUC(0-t) at 6 h [4]: 2.52 µM·h | Kp at 6 h [13]: 0.4 | pIC50 [7]: 9.00 | pIC50 (Cytochrome P450 3A4 [8]): 6.00 | hepatocyte CLint [9]: 13.6 µL/min/1e6 cells | hepatocyte CLint [10]: 12.8 µL/min/1e6 cells | pIC50 (Cytochrome P450 2D6): < 4.70 | pIC50 (Cytochrome P450 3A4 [11]): < 4.70
SMILES: O=S(=O)(CC[C@@H]1OCC[C@@]2(S(=O)(=O)c3ccc(Cl)cc3)c3c(F)ccc(F)c3OC[C@@H]12)C[C@H]1CCCN1
Activity (Mus musculus [2]): -71% | Activity (Mus musculus [6]): -42%
